Tests used:
[1] = biological target: T1, Staphylococcus aureus McsB (Staphylococcus aureus, UniProt Q2G0P6); assay: biochemical; design: Thermal shift assay (SYPRO Orange) of purified His-tagged McsB, melting temperature shift versus DMSO; conditions: TSA, purified McsB
T1 construct: full length, His-tagged, pET-28a(+), expressed in E. coli BL21(DE3), Ni-NTA purified, ~42 kDa; tag kept (anti-His blot); E. coli lysate containing it used for CETSA
Procedure: The thermal shift assay (TSA) was performed by incubating 0.1 µg/µl of purified McsB in assay buffer (50 mM sodium phosphate, 300 mM NaCl, pH 7.4) with 10X SYPRO Orange fluorescent dye (ThermoFisher Scientific, USA) in a final reaction volume of 20 µl. For primary screening, compounds from the Pandemic Response Box were tested in a pooled format (10 compounds per pool at 10 µM each, 40 pools total). Each pool was incubated with the protein-dye mixture for 1 h at 4 °C, followed by thermal denaturation (25–99 °C, at a ramp rate of 0.5 °C/s). Fluorescence was monitored at 470/586 nm (excitation/emission) using a QuantStudio 5 Real-Time PCR System (Applied Biosystems, ThermoFisher Scientific, USA). Compounds from pools that induced a significant increase in McsB melting temperature (Tm) relative to a DMSO control– indicating engagement with the target protein– were further evaluated individually at 10 µM. All Tm values were determined from derivative curves (dF/dT) using Protein Thermal Shift Software v1.4 (ThermoFisher Scientific, USA) and represent the average of at least three independent replicates (n ≥ 3). Recombinant McsB was expressed in E. coli BL21(DE3) cells and purified using Ni-NTA resin. SDS-PAGE and western blot analysis confirmed the isolation of a ~ 42 kDa His-tagged protein (Fig. 1), consistent with previous reports. The Pandemic Response Box was divided into 40 pools containing 10 compounds each and screened for stabilizing ligands of the purified McsB using TSA. Three groups- B4, C3 and E3- produced the most pronounced increases in McsB melting temperature, elevating it from 54.5 °C to 63.1, 64.0 and 62.8 °C, respectively (Fig. 2A). To identify the active compounds, we screened the 30 individual compounds from these pools, and found nine compounds that increased McsB melting temperature by 0.5–1.2 °C (Fig. 2B and C). Of these, seven induced statistically significant shifts, with MMV1593539 yielding the greatest stabilization (ΔTm = 1.2 ± 0.1 °C, p < 0.0001).

[2] = biological target: T1, Staphylococcus aureus McsB; design: CETSA, anti-His western blot, shift of McsB aggregation temperature; conditions: CETSA, aggregation temperature shift; binder

T1 sequence (Q2G0P6 whole entry): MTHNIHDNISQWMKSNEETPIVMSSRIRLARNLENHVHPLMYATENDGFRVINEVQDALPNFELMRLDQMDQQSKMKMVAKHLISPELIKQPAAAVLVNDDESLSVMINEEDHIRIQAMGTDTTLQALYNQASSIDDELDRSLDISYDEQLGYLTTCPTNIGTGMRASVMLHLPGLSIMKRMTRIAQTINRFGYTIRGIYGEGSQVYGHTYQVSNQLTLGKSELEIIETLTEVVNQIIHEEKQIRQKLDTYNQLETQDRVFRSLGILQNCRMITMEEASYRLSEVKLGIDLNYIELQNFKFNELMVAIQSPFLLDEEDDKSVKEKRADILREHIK

SMILES: Nc1nc2c(Cc3cccnc3)c[nH]c2c(=O)[nH]1 [MMV1782355]
- ΔTm at 10 µM [1]: 0.677 ± 0.098 °C
- ΔTagg [2]: 0.63 ± 0.54 °C

SMILES: CCCC(=O)OCCc1ccccc1 [MMV1578899, 2-phenylethyl butanoate 2-phenylethyl butanoate]
- ΔTm at 10 µM [1]: 0.9 ± 0.412 °C
- ΔTagg [2]: 0.78 ± 0.339 °C

SMILES: Nc1nc(-c2ccccc2)nc2[nH]nc(Nc3ccc(C(F)(F)F)cc3)c12 [MMV1633968, 6-phenyl-3-N-[4-(trifluoromethyl)phenyl]-1H-pyrazolo[3,4-d]pyrimidine-3,4-diamine]
- ΔTm at 10 µM [1]: 0.78 ± 0.081 °C

SMILES: Cn1cc(NC(=O)c2cc(NC(=O)c3ccc(/C=C/c4cnc5ccccc5c4)cc3)cn2C)cc1C(=O)NCCN1CCOCC1 [MMV1634391]
- ΔTm at 10 µM [1]: 0.473 ± 0.374 °C
